Data: paper PMC13594947 (Journal of Molecular and Cellular Cardiology Plus, 2026)
Like-named read-outs stand apart in the source and are kept apart here.

Key:
[1] = system: PRMT5; assay: Immunoblot of global SDMA in neonatal rat ventricular cardiomyocytes; type: cell-based; settings: concentrations up to 50 μM
[2] = system: murine heart; assay: Short-term application in mice: histology of cardiac cross-sections; type: in vivo; settings: oral once or twice a day, 5 consecutive days
Protocol: The compound (Medchemexpress) was dissolved in 5% DMSO, 40% PEG300, 5% Tween-80 in isotonic saline solution and administered either via oral gavage or by injection into the tail vein. Control animals received the same solution without compound. Heart cross-sections (2-chamber view) were fixed in Roti Histofix (Roth, P087.5) and dehydrated in ethanol. After paraffin embedding, slices of 6µm thickness were cut and used for Hematoxylin/Eosin and Masson’s trichrome staining. Imaging was performed on a Zeiss Axioscan 7. For analysis, 10 snapshots of fixed dimension were taken per animal and the percentage of fibrotic tissue was assessed based on color threshold using ImageJ.

[3] = system: mice; assay: PRMT5i combined with ORAB/sham surgery: mortality; type: in vivo; settings: PRMT5i-treated mice undergoing ORAB
Protocol: (§1) The compound (Medchemexpress) was dissolved in 5% DMSO, 40% PEG300, 5% Tween-80 in isotonic saline solution and administered either via oral gavage or by injection into the tail vein. Control animals received the same solution without compound.
(§2) The surgical procedure was essentially performed as previously described^20. In brief, animals were narcotized using Isoflurane. The thorax was opened and a nitrile O-ring (inner diameter 0.020 inch) was closed around the aorta ascendens in order to enhance pressure load of the left ventricle. Perisurgically and for the following days, analgesia was maintained via buprenorphine.

[4] = system: patients; settings: ref [12], [18]; cited from earlier work
[5] = system: hematopoiesis; assay: Long-term application in mice: blood cell parameters; type: in vivo; settings: 8 weeks
Protocol: Hematological parameters were analyzed using an automated hematology analyzer ([…] ABC, ABX Diagnostics, France) according to manufacturer's instructions. Whole blood samples were collected into EDTA-coated tubes to prevent coagulation. The following parameters were determined: red blood cell count (RBC), white blood cell count (WBC), hemoglobin concentration (HGB), mean corpuscular volume (MCV), mean corpuscular hemoglobin (MCH), platelet count (PLT), and differential leukocyte counts.

[6] = system: Myh7 and Nppa expression; assay: PRMT5i combined with ORAB/sham surgery: quantitative PCR of Myh7 and Nppa in left-ventricular tissue; type: in vivo; settings: mice
Protocol: as §2
1µg of RNA was reverse transcribed (PrimaDIRECT 2x PCR Master Mix Kit (Steinbrenner)) and cDNA was subjected to quantitative PCR on a LightCycler480 (Roche) using SYBR Green Master Mix (Thermo Fisher).
mmMyh7: • For: 5’ AGCATTCTCCTGCTGTTTCCT 3’ • Rev: 5’ CCAGGCCTGTAGAAGAGCTG 3’
mmNppa: • For: 5’ ATTGACAGGATTGGAGCCCAGAGT 3’ • Rev: 5’ TGACACACCACAAGGGCTTAGGAT 3’
mmGapdh: • For: 5’ GGTGGACCTCATGGCCTACA 3’ • Rev: 5’ CTCTCTTGCTCAGTGTCCTTGCT 3’

[7] = Single-dose pharmacokinetics in mice: plasma levels by UPLC-MS/MS; type: in vivo
Protocol: (§3) All animal studies were approved by and conducted in accordance with the German Animal Welfare Act and approved by the Animal Experiment Review Board of the Regierungspräsidium Karlsruhe, Germany. The study refers to the application […]-19. C57BL/6N mice were purchased from Charles River at the age of 12 weeks. Male and female mice were included in an equal ratio. The compound (Medchemexpress) was dissolved in 5% DMSO, 40% PEG300, 5% Tween-80 in isotonic saline solution and administered either via oral gavage or by injection into the tail vein. Control animals received the same solution without compound. […] Tissue samples were homogenized in water using a Bead Ruptor 4 homogenizer (Omni International Inc, USA) for at least 120 s with ceramic beads. After protein precipitation with acetonitrile, plasma and tissue sample extracts were measured using an UPLC-MS/MS (Waters, USA) setup including an Acquity UPLC I-Class® coupled with a Xevo TQ-S triple stage quadrupole mass spectrometer (Waters), which featured a heated ESI source (Z-Spray in the positive MRM mode). Gradient chromatography was conducted using an ACQUITY UPLC BEH C18 column (130 Å, 1.7 μm, 2.1 mm × 50 mm; Waters, USA) consisting of eluent A (95/5 H2O/ACN with 0.1% formic acid) and eluent B (ACN with 0.1% formic acid).

[8] = system: hematopoiesis; assay: PRMT5i combined with ORAB/sham surgery: blood cell parameters; type: in vivo; settings: mice, chronic PRMT5i with ORAB/sham
Protocol: The surgical procedure was essentially performed as previously described^20. In brief, animals were narcotized using Isoflurane. The thorax was opened and a nitrile O-ring (inner diameter 0.020 inch) was closed around the aorta ascendens in order to enhance pressure load of the left ventricle. Perisurgically and for the following days, analgesia was maintained via buprenorphine. Hematological parameters were analyzed using an automated hematology analyzer ([…] ABC, ABX Diagnostics, France) according to manufacturer's instructions. Whole blood samples were collected into EDTA-coated tubes to prevent coagulation. The following parameters were determined: red blood cell count (RBC), white blood cell count (WBC), hemoglobin concentration (HGB), mean corpuscular volume (MCV), mean corpuscular hemoglobin (MCH), platelet count (PLT), and differential leukocyte counts.

[9] = Single-dose pharmacokinetics in mice: tissue levels (heart, liver, kidney, skeletal muscle) by UPLC-MS/MS; type: in vivo; settings: for concentration at 1 h: po, 100 mg/kg, oral 100 mg/kg, peak (1 h)
Protocol: as §3

[10] = system: mice; assay: Long-term application in mice: body weight, mortality, heart and lung weight to tibia length; type: in vivo; settings: 8 weeks
Protocol: (§4) All animal studies were approved by and conducted in accordance with the German Animal Welfare Act and approved by the Animal Experiment Review Board of the Regierungspräsidium Karlsruhe, Germany. The study refers to the application G210-19. C57BL/6N mice were purchased from Charles River at the age of 12 weeks. Male and female mice were included in an equal ratio.
as §1

[11] = system: murine heart; assay: PRMT5i combined with O-ring aortic banding (ORAB)/sham surgery: echocardiography; type: in vivo; settings: mice, 56 days combined with ORAB/sham surgery
Protocol: The compound (Medchemexpress) was dissolved in 5% DMSO, 40% PEG300, 5% Tween-80 in isotonic saline solution and administered either via oral gavage or by injection into the tail vein. Control animals received the same solution without compound. Cardiac performance was determined by transthoracic echocardiography. Measurements on conscious mice were performed using a Vevo® 2100 system with a 55 MHz transducer (Visualsonics). Ejection fraction (EF) was averaged over at least 5 contraction cycles. The experimenter was blinded for genotype and treatment.

[12] = system: murine heart; assay: Long-term application in mice: Masson Trichrome histology (fibrosis); type: in vivo; settings: 8 weeks
Protocol: Heart cross-sections (2-chamber view) were fixed in Roti Histofix (Roth, P087.5) and dehydrated in ethanol. After paraffin embedding, slices of 6µm thickness were cut and used for Hematoxylin/Eosin and Masson’s trichrome staining. Imaging was performed on a Zeiss Axioscan 7. For analysis, 10 snapshots of fixed dimension were taken per animal and the percentage of fibrotic tissue was assessed based on color threshold using ImageJ.

[13] = system: HEK293 cells; assay: PRMT5i-associated cytotoxicity, CellTiter 96 Cell Proliferation Assay; type: cell-based; settings: dosage escalation beyond 10 μM, 48 h exposure
Protocol: HEK293 cells (ATCC) were cultured in DMEM (PanBiotech) supplemented with 10% FCS (Thermo Fisher) and 1% penicillin-streptomycin (Thermo Fisher) and incubated at standard conditions. Cells between passage 5 and 18 were used for experiments. Neonatal rat ventricular myocytes (NRVMs) were isolated from 24h-to-72h old rats using the Neonatal Heart Dissociation Kit (Miltenyi Biotec) according to manufacturer’s recommendations, cultured in DMEM supplemented with 10% FCS and 1% penicillin-streptomycin and incubated at standard conditions. EPZ015666 and GSK3326595 (MedChemExpress) were dissolved in DMSO and added into the culture medium at indicated dosages. For protein analysis, cells were treated for 96 h including a medium exchange after 48 h. Control cells were treated with DMSO accordingly. Single values in the analysis represent individually treated wells (technical replicates) and experiments were reproduced at least three times using independent cell passages or preparations. […] The treatment was performed in individual wells and absorbance at 570 nm was recorded on an EnSight Plate reader (PerkinElmer).

[14] = system: murine heart; assay: Long-term application (8 weeks) in mice: transthoracic echocardiography; type: in vivo; settings: over the course of 8 weeks
Protocol: as §4, §1
(§5) Cardiac performance was determined by transthoracic echocardiography. Measurements on conscious mice were performed using a Vevo® 2100 system with a 55 MHz transducer (Visualsonics). Ejection fraction (EF) was averaged over at least 5 contraction cycles. The experimenter was blinded for genotype and treatment.

[15] = system: murine heart; assay: PRMT5i combined with ORAB/sham surgery: histology (fibrosis); type: in vivo; settings: mice
Description: The surgical procedure was essentially performed as previously described^20. In brief, animals were narcotized using Isoflurane. The thorax was opened and a nitrile O-ring (inner diameter 0.020 inch) was closed around the aorta ascendens in order to enhance pressure load of the left ventricle. Perisurgically and for the following days, analgesia was maintained via buprenorphine. Heart cross-sections (2-chamber view) were fixed in Roti Histofix (Roth, P087.5) and dehydrated in ethanol. After paraffin embedding, slices of 6µm thickness were cut and used for Hematoxylin/Eosin and Masson’s trichrome staining. Imaging was performed on a Zeiss Axioscan 7. For analysis, 10 snapshots of fixed dimension were taken per animal and the percentage of fibrotic tissue was assessed based on color threshold using ImageJ.

[16] = system: murine heart; assay: Short-term application (5 consecutive days) in mice: transthoracic echocardiography, survival; type: in vivo
Protocol: as §4, §1, §5

For O=C(NC[C@H](O)CN1CCc2ccccc2C1)c1cc(NC2COC2)ncn1 [EPZ015666], the “global SDMA” value [1] was “did not detect a significant reduction of global SDMA”.
In the case of CC(=O)N1CCC(Nc2cc(C(=O)NC[C@H](O)CN3CCc4ccccc4C3)ncn2)CC1 [GSK3326595], the “tissue morphology / fibrotic remodeling” value [2] is given as “no immediate detrimental effects or fibrotic remodeling”, the mortality [3] is given as “delayed mortality starting 2 weeks post-surgery” and the “adverse cardiovascular events in clinical studies” value [4] is given as “manifested adverse cardiovascular events were not described”. For the same molecule, the “hematology: anemia, lymphopenia” value [5] was “significant anemia and lymphopenia”, the platelets counts [5] was “unaltered” and the “expression of cardiac stress markers Myh7 and Nppa” value [6] was “stable expression of classical cardiac stress markers such as Myh7 and Nppa”. The half-life ([7]; both sexes, C57BL/6N, mouse, plasma) was 2.5 h, the bioavailability ([7]; both sexes, C57BL/6N, mouse, plasma, po) was 5.7% and the “decline of plasma concentration on average” value ([7]; over a course of 12 h) was > 90%. For the same molecule, the “time of plasma peak concentration post application” value ([7]; single dose oral gavage or intravenous) was 1 h, the “hematology: anemia, leucopenia” value [8] was “significant normocytic normochromic anemia and leucopenia” and the platelets [8] was “not affected”. For the same molecule, the “heart targeted by % dosage on average” value ([9]; as worded) was 19.0%, the “muscle tissue targeted by % dosage on average” value ([9]; as worded) was 26.0% and the “heart targeted by % dosage on average (versus liver)” value ([9]; as worded in b7, first of 'respectively') was 26.0%. For the same molecule, the “heart targeted by % dosage on average (versus kidney)” value ([9]; as worded in b7, second of 'respectively') was 19.0%, the concentration at 1 h ([9]; both sexes, C57BL/6N, mouse, heart, read-out: absolute inhibitor concentration in heart) was 82700 ng/g and the Tmax ([9]; both sexes, C57BL/6N, mouse, liver, kidney, heart, skeletal muscle, other: oral (gavage) and intravenous (tail vein), both arms, single dose, read-out: time of maximum levels in liver, kidney, heart and skeletal muscle) was 1 h. The concentration at 1 h ([9]; both sexes, C57BL/6N, mouse, skeletal muscle, read-out: absolute inhibitor concentration in skeletal muscle) was 172000 ng/g, the “heart weight-to-tibia length and lung weight-to-tibia length” value [10] was “did not reveal PRMT5i-induced alterations” and the “tolerability (body weight, mortality)” value [10] was “well tolerated as determined by stable body weight without treatment-associated mortality”. The longitudinal echocardiographic analysis [11] was “no statistical significance was found for any of the indicated time points in any group comparison”, the “myocardial fibrosis (Masson Trichrome staining)” value [12] was “remained stable” and the cytotoxicity [13] was “significantly less cytotoxicity as compared to EPZ015666”. For the same molecule, the systolic cardiac function [14] was “preserved”, the “fibrotic remodeling (histology)” value [15] was “no significant fibrotic remodeling” and the “ejection fraction” value ([16]; oral once or twice a day, 5 consecutive days) was “did not detect changes in ejection fraction”. The “death during the experiment” value ([16]; short-term application, 10 mg/kg) was “one animal (10 mg/kg) that died during the course of the experiment”.
